From patent US11324794B2, “Composition for preventing, improving, or treating decrease in intestinal function, comprising bamboo shoot hydrolyzate or fermented bamboo shoot as active ingredient” (OZLDNF CO., LTD., priority 2017, dated 2022)

Legend:
Sprague Dawley (SD) rat [1] = experiment: Measurement of number of feces and feces weight change in loperamide-induced constipation; assay type: in vivo; conditions: oral
Source text: (§1) Laboratory […] under the following conditions were used. • Genealogy and Species: Sprague Dawley (SD) rat • Source: Samtaco Co., Ltd. • Number of purchased animals and gender: Male • Age (week) of purchased animals and weight range: 6 weeks, 190 to 220 • Number of animals (male) at the time of administration: 49 • Age (week) of animals and weight range at the time of administration: 7 weeks, 210 to 240 g.
(§2) After one week of acclimation, the test substance, that is, ioperamide as a conventional constipation inductive material, bisacodyl as a conventional constipation therapeutic agent, the enzyme-degraded products in Examples 1 and 2 (fermented for 24 hours) and the fermented products in Examples 3 and 4, respectively, were repeatedly administered in the stomach once a day for a total of 7 days by means of a syringe for oral administration (Sonde). Except for the control group (Con), all test groups were subjected to administration of loperamide (4 mg/kg) in order to induce constipation.
The feces were sampled daily and the number and weight of the feces were measured. Further, the sampled feces were dried in a drier at 70° C. for 24 hours.

Sprague Dawley (SD) rat [2] = experiment: Digestive tract migration rate (activated charcoal); assay type: in vivo; conditions: oral, 7th day, 30 minutes after charcoal
Source text: as §1
as §2, with “Except for the control group (Con), all test groups were subjected to administration of loperamide (4 mg/kg) in order to induce constipation.” left out
After fasting a laboratory animal for 15 hours on the 7th day of constipation induction, a 0.5 ml suspension including 10% Arabic gum (Sigma, USA) and 5% activated charcoal (Sigma, USA) was orally administered to the animal. 30 minutes later, the animal was sacrificed, the gastrointestinal tract was removed, and a migration rate was calculated by dividing a length wherein green colored feces are excreted among the intestinal tract length between the duodenum and the rectum, with passage of time. […]

[3] = Measurement of body weight, dietary intake and amount of drinking water; assay type: in vivo, Sprague Dawley (SD) rat; conditions: Lop group: loperamide 4 mg/kg alone, oral
Source text: as §1
as §2, with “Except for the control group (Con), all test groups were subjected to administration of loperamide (4 mg/kg) in order to induce constipation.” left out
The body weight was measured twice a week on the day before the experiment when group separation was conducted, and twice a week on the day after administration, respectively. The experimental dietary intake was measured by feeding 100 g of test diet at a predetermined time and, after 24 hours, the remaining amount was measured to determine the dietary intake. The drinking water was fed by 250 ml at a predetermined time and the remaining water was measured on the next day to determine a total amount of the water intake. […]

Sprague Dawley (SD) rat [4] = experiment: Counting number of intestinal stools remaining in the colon tract; assay type: in vivo; conditions: oral, 8th day
Source text: as §1, §2
The number of intestinal stools was counted by scarifying a laboratory rat on the 8th day after administration of loperamide and observing the number of feces remaining in the colon tract.
On the last day of the experiment, all laboratory animals were sacrificed and the number of feces remaining in the rectal region was measured.

Sprague Dawley (SD) rat [5] = experiment: Measurement of water content of feces; assay type: in vivo; conditions: Bis group: loperamide 4 mg/kg + bisacodyl 4 mg/kg, oral; comparison group 29.98±1.89%
Source text: as §1, §2
The feces were sampled daily and the number and weight of the feces were measured. Further, the sampled feces were dried in a drier at 70° C. for 24 hours. A percentage of water content was calculated by subtracting the weight after drying from the weight before drying to estimate the water content and converting the estimated value as the percentage to a total weight of the feces.

[6] = Bis group: loperamide 4 mg/kg + bisacodyl 4 mg/kg

SMILES	Number of feces (Sprague Dawley (SD) rat [1]; Lop group: loperamide 4 mg/kg alone, 7th day after induction of constipation, Con group 55.14±2.06)	Weight of feces (Sprague Dawley (SD) rat [1]; Lop group: loperamide 4 mg/kg alone, Con group 7.52±0.30 g) [g]	Digestive tract migration rate (Sprague Dawley (SD) rat [2]; Lop group: loperamide 4 mg/kg alone, Con group 68.63±2.72%) [%]	Body weight change (g) (B) − (A) ([3]; 7 days)	Body weight (g) After test (B) ([3]; once a day for 7 days) [g]	Number of feces remaining in the intestinal tract (Sprague Dawley (SD) rat [4]; Lop group: loperamide 4 mg/kg alone, Con group 1.86±0.55)	Water content of the feces (Sprague Dawley (SD) rat [5]) [%]	Weight of feces (Sprague Dawley (SD) rat [1]; [6]) [g]	Digestive tract migration rate (Sprague Dawley (SD) rat [2]; [6]) [%]	Number of feces remaining in the intestinal tract (Sprague Dawley (SD) rat [4]; [6])
CN(C)C(=O)C(CCN1CCC(O)(c2ccc(Cl)cc2)CC1)(c1ccccc1)c1ccccc1 [Loperamide]	44.40±2.54	5.02 ± 0.36	42.10±3.49	73.45 ± 5.48	278.58 ± 6.82	5.66±0.63				
CC(=O)Oc1ccc(C(c2ccc(OC(C)=O)cc2)c2ccccn2)cc1 [Bisacodyl]							44.02±1.34	6.82 ± 0.35	65.02±2.86	3.62±0.86
